# Source: patent US5015661A, “Chromanes and their pharmaceutical compositions and methods” (Hoffmann-La Roche Inc., priority 1989, dated 1991)
# System: arachidonic acid-induced mouse ear edema
# Assay: Mouse ear edema test (in vivo), arachidonic acid-induced
# Conditions: 1 mg topical, CD-1 male mice, 0.5 mg arachidonic acid 0.5 or 4 hours later, ear biopsy weight after 1 hour, read-out: EAR EDEMA % INHIB. 1 mg
# Experimental: MOUSE EAR EDEMA TEST (IN VIVO)
# In this animal model system, the application of arachidonic acid to the ear results in the biosynthesis of the metabolic products […]-6,8,11,14-eicosatetraenoic acid (5-HETE), leukotriene B4 (LTB4), leukotriene C4 (LTC4), […]-5,8,10,14-eicosatetraenoic acid (12-HETE), and prostaglandin E2 (PGE2) at the site of application, followed by the influx of neutrophils into the site and the rapid development of edema within 30 to 60 minutes (See, for instance, Young, Wagner and Spries, "Tachyphylaxis in 12-O-Tetradecanoylphorbol Acetate And Arachidonic Acid-Induced Ear Edma," J. Invest. Dermatol. 80:48 (1983) and Hames, Opas and Bonney, "Arachidonic Acid MetaboIites in Mouse Ear Edma" Advances in Inflammation Research. 11:57 (1986).
# CD-1 male mice weighing 15 to 25 g were employed, and they were designated as follows: (1) Control Group, in which no arachidonic acid or test compound was to be applied, (2) Arachidonic Acid-Treated Group, in which no test compound was to be applied, and (3) Treated Group, in which the test compound was to be applied first, followed by the application of arachidonic acid.
# In the case of the Group (3) animals, the test compound, dissolved in acetone, was applied to the dorsal surface of the right ear of the mouse with a 25-microliter pipette or, with the dose of the test compound being varied. After 0.5 hours in some cases and 4 hours in others, the arachidonic acid was topically applied in the same manner as above to the pretreated ear areas. In each case of arachidonic acid application, an amount of 0.5 mg dissolved in 25 microliters of acetone was used. After 1 hour, the mice were sacrificed by carbon dioxide inhalation. A 6mm-diameter standard biopsy punch was used to obtain a uniform tissue sample from the ear of each mouse so treated, and the tissue samples were weighted to the nearest 0.1 mg. The percent inhibition of ear edema formation was calculated as follows: [formula]
row,SMILES,inhibition in vivo at 1 mg
1,"Cc1c(C)c2c(c(C)c1O)CCC(C)(C#Cc1ccccc1)O2 (racemic) [Example 1, rac-3,4-Dihydro-2,5,7,8-tetramethyl-2-(phenylethynyl)-2H-1-benzopyran-6-ol]",45%
2,"Cc1c(C)c2c(c(C)c1O)CCC(C)(C#Cc1cccs1)O2 (racemic) [Example 4, rac-3,4-Dihydro-2,5,7,8-tetramethyl-2-[(2-thienyl)ethynyl]-2H-1-benzopyran-6-ol]",61%
3,"Cc1c(C)c2c(c(C)c1O)CCC(C)(C#Cc1cccnc1)O2 (racemic) [Example 14, rac-3,4-Dihydro-2,5,7,8-tetramethyl-2-[(3-pyridinyl)ethynyl]-2H-1-benzopyran-6-ol]",20%
4,"Cc1c(C)c2c(c(C)c1O)CCC(C)(C#Cc1ccccn1)O2 (racemic) [Example 15, rac-3,4-Dihydro-2,5,7,8-tetramethyl1-2-[(2-pyridinyl)ethynyl]-2H-1-benzopyran-6-ol]",18%
5,"Cc1c(C)c2c(c(C)c1O)CCC(C)(C#Cc1csc3ccccc13)O2 (racemic) [Example 16, rac-[2-(Benzo[b]thiophen-3-yl)ethynyl]-3.4-dihydro-2,5,7,8-tetramethyl-2H-1-benzopyran-2H-1-benzopyran-6-ol]",62%
6,"CCCCc1ccc(C#CC2(C)CCc3c(C)c(O)c(C)c(C)c3O2)s1 (racemic) [Example 31, rac-2-[(5-Butyl-2-thienyl)ethynyl]-3,4-dihydro-2,5,7,8-tetramethyl-2H-1-benzopyran-6-ol]",24%
7,"Cc1c(C)c2c(c(C)c1O)CCC(C)(C#Cc1cccc(C(F)(F)F)c1)O2 (racemic) [Example 35, rac-2-{[3-(Trifluoromethyl)phenyl]ethynyl-3,4-dihydro-2,5,7,8-tetramethyl-2H-1-benzopyran-6-ol]",15%
8,"CC(=O)Oc1cc(C#CC2(C)CCc3c(C)c(O)c(C)c(C)c3O2)ccc1OCc1ccccc1 (racemic) [Example 41, rac-2-{[3-Acetyloxy-4-(phenylmethoxy)phenyl]ethynyl}-3,4-dihydro-2,5,7,8-tetramethyl-2H-1-benzopyran-6-ol]",31%
9,"Cc1c(C)c2c(c(C)c1O)CCC(C)(C#Cc1ccc(OCc3ccccc3)c(O)c1)O2 (racemic) [Example 43, rac-3,4-Dihydro-2-{[3-hydroxy-4-(phenylmethoxY)phenyl]-ethynyl}-2,5,7,8-tetramethyl-2H-1-benzopyran-6-ol]",31%
10,"Cc1c(C)c2c(c(C)c1O)CCC(C)(c1cc3ccccc3o1)O2 (racemic) [Example 50 (CH; H, H, H), rac-2-(2-Benzofuranyl)-3,4-dihydro-2,5,7,8-tetramethyl-2H-1-benzopyran-6-ol]",68%
11,"Cc1ccc2oc(C3(C)CCc4c(C)c(O)c(C)c(C)c4O3)cc2n1 (racemic) [Example 51, rac-3,4-Dihydro-2-(5-methylfuro[3,2[b]pyridin-2-yl)-2,5,7,8-tetramethyl-2H-1-benzopyran-6ol]",69%
12,"Cc1c(C)c2c(c(C)c1O)CCC(C)(c1cc3ncccc3o1)O2 (racemic) [Example 52, rac-3,4-Dihydro-2-(furo[3,2-b]pyridine-2-yl)-2,5,7,8-tetramethyl-2H-1-benzopyran-6-ol]",49%
13,"CCCc1c(O)c(C(C)=O)cc2cc(C3(C)CCc4c(C)c(O)c(C)c(C)c4O3)oc12 (racemic) [Example 53, rac-1-2-(3,4-Dihydro-6-hydroxy-2,5,7,8-tetramethyl-2H-1-benzopyran-2-yl)-6-hydroxy-7-propylbenzofuran-5-yl]ethanone]",54%
14,"Cc1c(C)c2c(c(C)c1O)CCC(C)(CCc1cccs1)O2 (racemic) [Example 57, rac-3,4-Dihydro-2,5,7,8-tetramethyl-2-[2-(2-thienyl)ethyl]-2H-1-benzo-pyran-6-ol]",41%
15,"Cc1c(C)c2c(c(C)c1O)CCC(C)(CCc1ccccn1)O2 (racemic) [Example 58, rac-3,4-Dihydro-2,5,7,8-tetramethyl-2-[2-(2-pyridinyl)ethyl]-2H-1-benzopyran-6-ol]",31%
16,"Cc1c(C)c2c(c(C)c1O)CCC(C)(CCc1cccnc1)O2 (racemic) [Example 59, rac-3,4-Dihydro-2,5,7,8-tetramethyl-2-[2-(3-pyridinyl)ethyl]-2H-1-benzopyran-6-ol]",48%
17,"Cc1c(C)c2c(c(C)c1O)CCC(C)(CCc1ccc(O)c(O)c1)O2 (racemic) [Example 61, rac-4-[2-(3,4-Dihydro-6-hydroxy-2,5,7,8-tetramethyl-2H-1-benzopyran-2-yl)ethyl]-1,2-benzenediol]",55%
18,"Cc1c(C)c2c(c(C)c1O)CC[C@](C)(C#Cc1cccs1)O2 [Example 5, (R)-3,4-Dihydro-2,5,7,8-tetramethyl-2-[(2-thienyl)ethynyl]-2H-1-benzopvran-6-ol]",66%
19,"Cc1c(C)c2c(c(C)c1O)CC[C@@](C)(C#Cc1cccs1)O2 [Example 13, (S)-3,4-Dihydro-2,5,7,8-tetramethyl-2-[(2-thienyl)ethynyl]-2H-1-benzopyran-6-ol]",32%
